Experimental findings from ChEMBL document CHEMBL5053512, “Discovery and Preclinical Pharmacology of an Oral Bromodomain and Extra-Terminal (BET) Inhibitor Using Scaffold-Hopping and Structure-Guided Drug Design” (J Med Chem, 2021) are described below.

This assay addresses Bromodomain-containing protein 3 (Homo sapiens, UniProt Q15059). In words: Inhibition of human BRD3 measured by TR-FRET assay. In general terms: TR-FRET usually uses a lanthanide donor and a delayed reading to cut background.

Bromodomain-containing protein 3, sequence (Q15059 whole entry): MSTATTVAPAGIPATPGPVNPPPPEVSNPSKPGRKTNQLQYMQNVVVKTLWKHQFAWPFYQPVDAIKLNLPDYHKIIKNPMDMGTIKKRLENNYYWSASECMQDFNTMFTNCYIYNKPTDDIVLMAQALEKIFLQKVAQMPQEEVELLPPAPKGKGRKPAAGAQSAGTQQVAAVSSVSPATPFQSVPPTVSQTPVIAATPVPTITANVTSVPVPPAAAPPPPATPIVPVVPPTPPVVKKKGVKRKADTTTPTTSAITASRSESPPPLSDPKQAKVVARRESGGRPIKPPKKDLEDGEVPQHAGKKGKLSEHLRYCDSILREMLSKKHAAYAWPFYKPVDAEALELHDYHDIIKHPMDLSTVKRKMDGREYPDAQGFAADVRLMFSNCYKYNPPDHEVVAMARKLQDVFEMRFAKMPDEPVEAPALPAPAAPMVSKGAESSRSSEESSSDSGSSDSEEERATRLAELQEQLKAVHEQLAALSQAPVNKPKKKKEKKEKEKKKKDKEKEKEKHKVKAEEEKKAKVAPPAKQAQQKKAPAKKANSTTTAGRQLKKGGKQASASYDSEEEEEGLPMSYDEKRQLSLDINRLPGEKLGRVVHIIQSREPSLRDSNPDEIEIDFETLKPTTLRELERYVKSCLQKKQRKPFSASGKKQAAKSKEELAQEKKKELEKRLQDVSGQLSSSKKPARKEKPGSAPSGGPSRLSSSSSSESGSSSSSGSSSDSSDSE

Broadly, the IC50 is the concentration that gives 50% inhibition. Low values mean greater potency, high ones weaker potency. Consider `Cc1nnn(C)c1-c1cnc2c3ccc(C(C)(C)O)cc3n([C@H](c3ccccc3)C3CCOCC3)c2c1` [EZOBRESIB], for which the IC50 came out at 1.1 nM.
